This passage reports Ki results from PMC5103170, “Total Synthesis, Structure, and Biological Activity of Adenosylrhodibalamin, the Non‐Natural Rhodium Homologue of Coenzyme B12” (Angewandte Chemie (International Ed. in English), 2016).

pKi: −log10 of the molar value.

This experiment deals with T1, 1,2-propanediol dehydratase (PduCDE) (Citrobacter freundii, UniProt P0DUM7+P0DUM8).
T1 construct: gene pduC; purified enzyme, alpha2beta2gamma2; construct details only in Supporting Information; with Propanediol dehydratase small subunit
T1 sequence (P0DUM7 1-554): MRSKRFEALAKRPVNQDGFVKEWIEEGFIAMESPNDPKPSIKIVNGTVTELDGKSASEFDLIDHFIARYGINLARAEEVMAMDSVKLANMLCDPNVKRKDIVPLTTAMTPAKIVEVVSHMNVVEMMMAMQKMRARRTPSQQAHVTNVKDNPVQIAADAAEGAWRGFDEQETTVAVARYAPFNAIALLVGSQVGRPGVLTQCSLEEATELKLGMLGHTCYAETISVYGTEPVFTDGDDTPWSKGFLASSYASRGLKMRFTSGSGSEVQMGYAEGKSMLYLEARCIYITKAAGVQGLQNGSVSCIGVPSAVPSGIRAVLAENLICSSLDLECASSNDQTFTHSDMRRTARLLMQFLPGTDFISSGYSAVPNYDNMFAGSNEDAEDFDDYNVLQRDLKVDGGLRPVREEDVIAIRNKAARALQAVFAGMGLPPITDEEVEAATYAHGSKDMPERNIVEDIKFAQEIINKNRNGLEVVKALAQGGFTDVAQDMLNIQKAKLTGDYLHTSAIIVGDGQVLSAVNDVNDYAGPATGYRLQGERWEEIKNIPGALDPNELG
T1 sequence (P0DUM8 1-224): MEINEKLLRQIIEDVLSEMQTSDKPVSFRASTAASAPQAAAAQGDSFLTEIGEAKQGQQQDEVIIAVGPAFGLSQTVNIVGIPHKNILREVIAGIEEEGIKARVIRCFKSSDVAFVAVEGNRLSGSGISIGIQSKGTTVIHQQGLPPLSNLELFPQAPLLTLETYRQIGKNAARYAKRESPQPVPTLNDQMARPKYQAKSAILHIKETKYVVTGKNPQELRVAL
T1 sequence (P0DUM9 1-172 partner): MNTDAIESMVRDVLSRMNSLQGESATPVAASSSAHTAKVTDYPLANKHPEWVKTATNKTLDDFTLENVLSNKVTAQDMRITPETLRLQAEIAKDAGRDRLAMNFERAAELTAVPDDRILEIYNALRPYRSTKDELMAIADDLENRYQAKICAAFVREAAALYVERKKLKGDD
Put plainly: enzyme inhibition kinetics, non-linear regression. It is filed as biochemical. Particulars: competitive with AdoCbl.

For AdoRbl, the pKi (inactive as pseudo-coenzyme) is 5.16.

As for vitamin B12, the pKi was 5.60.

As usually defined, the pKi is the Ki on a negative log10 scale, so that one unit is a factor of ten. The low end stands for a large Ki, the high end for a small Ki.
